{
  "source": "patent US5413990A",
  "about": "“N-terminus modified analogs of LHRH” (Tap Pharmaceuticals Inc., priority 1993, dated 1995)",
  "target": "T1, LHRH (Rattus norvegicus, UniProt P30969)",
  "T1 construct": "evaluated in an in vitro test for LHRH antagonist potency (pA2); endogenous in cells; host or cells: pituitary cells (rat, from my own knowledge of the cited method)",
  "T1 sequence (P30969 1-327)": "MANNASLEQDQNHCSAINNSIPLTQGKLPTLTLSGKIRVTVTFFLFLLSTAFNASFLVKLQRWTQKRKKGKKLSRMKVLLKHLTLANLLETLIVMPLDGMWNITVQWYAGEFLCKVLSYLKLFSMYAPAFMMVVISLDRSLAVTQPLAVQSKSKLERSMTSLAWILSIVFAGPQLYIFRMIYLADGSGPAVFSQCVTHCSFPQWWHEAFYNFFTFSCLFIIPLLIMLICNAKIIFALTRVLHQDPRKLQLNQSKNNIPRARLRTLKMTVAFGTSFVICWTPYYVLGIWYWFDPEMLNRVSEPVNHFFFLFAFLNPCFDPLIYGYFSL",
  "experiment": "in vitro test for LHRH antagonist potency (pA2)",
  "assay_type": "cell-based",
  "conditions": "negative logarithm of the antagonist concentration required to shift the response curve produced by the agonist leuprolide to two-fold higher concentration",
  "protocol": "Representative compounds of the present invention were evaluated in an in vitro test for LHRH antagonist potency (pA2). The test employed the method detailed in F. Haviv, et al. J. Med. Chem., 32:2340-2344 (1989). The values of pA2 are the negative logarithms of the concentration of the particular antagonist test compound required to shift the response curve produced by the agonist leuprolide to two-fold higher concentration. (Leuprolide is the LHRH agonist having the structure 5-oxo-Pro^1 -His^2 -Trp^3 -Ser^4 -Tyr^5 -D-Leu^6 -Leu^7 -Arg^8 -Pro^9 -NHEt and is disclosed and claimed in U.S. Pat. No. 4,005,063.) Typically pA2 values of 9.5 or greater are indicative of good LHRH antagonist potency, with values of 10.0 or greater being preferred.",
  "note": "Numbered stars: 1 amine (or outer) side, 2 acyl side, 3 side chain; on linkers, the order of the positions; unused ones are H or OH. Square brackets hold non-standard residues; d marks the D form. Peptide text beside a SMILES is read from it. * marks the point of attachment. dPhe(4-Cl) = N[C@H](Cc1ccc(Cl)cc1)C(=O)O; NH(2-(2-pyridyl)ethyl) = c1ccc(CCN*)nc1; d2Nal = N[C@H](Cc1ccc2ccccc2c1)C(=O)O; Lys(iPr) = CC(C)NCCCC[C@H](N)C(=O)O; NMeY = CN[C@@H](Cc1ccc(O)cc1)C(=O)O; Cyclopropanecarbonyl = O=C(C1CC1)*; Hydrocinnamoyl = O=C(CCc1ccccc1)*; NHCH2(2-pyridyl) = c1ccc(CN*)nc1; dCit = NC(=O)NCCC[C@@H](N)C(=O)O; d3Pal = N[C@H](Cc1cccnc1)C(=O)O; NH(3-picolyl) = c1cncc(CN*)c1; Succinamoyl = NC(=O)CCC(=O)*; Nicotinoyl = O=C(c1cccnc1)*; Isobutyryl = CC(C)C(=O)*; Morpholide = C1CN(*)CCO1; PhAc = O=C(Cc1ccccc1)*; CO = O=C([*:1])[*:2]; Propionyl = CCC(=O)*; X4 = N#CCC(=O)*; For = O=C*",
  "data": [
    {"smiles": "CC(C)C[C@H](NC(=O)[C@@H](CCCCNC(=O)c1cccnc1)NC(=O)[C@H](Cc1ccc(O)cc1)N(C)C(=O)[C@H](CO)NC(=O)[C@@H](Cc1cccnc1)NC(=O)[C@@H](Cc1ccc(Cl)cc1)NC(=O)[C@@H](Cc1ccc2ccccc2c1)NC(=O)C(C)C)C(=O)N[C@@H](CCCCNC(C)C)C(=O)N1CCC[C@H]1C(=O)N[C@H](C)C(N)=O", "note": "[Example 2c, N-Isobutyryl-D2Nal-D4ClPhe-D3Pal- Ser-NMeTyr-DLys(N-epsilon-Nicotinyl)-Leu-Lys(N-epsilon-Isopropyl)-Pro-DAlaNH2] (Isobutyryl-[d2Nal][dPhe(4-Cl)][d3Pal]S[NMeY][dK](Nicotinoyl)L[Lys(iPr)]P[dA]-NH2)", "values": [
      {"measurement": "Kb", "result": 0.0178, "unit": "nM"}
    ]},
    {"smiles": "CC(C)C[C@H](NC(=O)[C@@H](CCCNC(N)=O)NC(=O)[C@H](Cc1ccc(O)cc1)N(C)C(=O)[C@H](CO)NC(=O)[C@@H](Cc1cccnc1)NC(=O)[C@@H](Cc1ccc(Cl)cc1)NC(=O)[C@@H](Cc1ccc2ccccc2c1)NC(=O)CCC(N)=O)C(=O)N[C@@H](CCCNC(=N)N)C(=O)N1CCC[C@H]1C(=O)N[C@H](C)C(N)=O", "note": "[Example 5d, N-Succinamyl-D2Nal-D4ClPhe-D3Pal-Ser-NMeTyr-DCit-Leu-Arg-Pro-DAlaNH2] (Succinamoyl-[d2Nal][dPhe(4-Cl)][d3Pal]S[NMeY][dCit]LRP[dA]-NH2)", "values": [
      {"measurement": "Kb", "result": 0.00646, "unit": "nM"}
    ]},
    {"smiles": "CC(C)C[C@H](NC(=O)[C@@H](CCCCNC(=O)c1cccnc1)NC(=O)[C@H](Cc1ccc(O)cc1)N(C)C(=O)[C@H](CO)NC(=O)[C@@H](Cc1cccnc1)NC(=O)[C@@H](Cc1ccc(Cl)cc1)NC(=O)[C@@H](Cc1ccc2ccccc2c1)NC(=O)Cc1ccccc1)C(=O)N[C@@H](CCCCNC(C)C)C(=O)N1CCC[C@H]1C(=O)N[C@H](C)C(N)=O", "note": "[Example 2k, N-Phenylacetyl-D2Nal-D4ClPhe-D3Pal-Ser-NMeTyr-DLys(N-epsilon-Nicotinyl)-Leu-Lys(N-epsilon-Isopropyl)-Pro-DAlaNH2] (PhAc-[d2Nal][dPhe(4-Cl)][d3Pal]S[NMeY][dK](Nicotinoyl)L[Lys(iPr)]P[dA]-NH2)", "values": [
      {"measurement": "Kb", "result": 0.0141, "unit": "nM"}
    ]},
    {"smiles": "CC(C)C[C@H](NC(=O)[C@@H](CCCCNC(=O)c1cccnc1)NC(=O)[C@H](Cc1ccc(O)cc1)N(C)C(=O)[C@H](CO)NC(=O)[C@@H](Cc1cccnc1)NC(=O)[C@@H](Cc1ccc(Cl)cc1)NC(=O)[C@@H](Cc1ccc2ccccc2c1)NC=O)C(=O)N[C@@H](CCCCNC(C)C)C(=O)N1CCC[C@H]1C(=O)N[C@H](C)C(N)=O", "note": "[Example 1, N-Formyl-D2Nal-D4ClPhe-D3Pal-Ser-NMeTyr-DLys(Nicotinyl)-Leu-Lys(N-epsilon-lsopropyl)-Pro-DAlaNH2] (For-[d2Nal][dPhe(4-Cl)][d3Pal]S[NMeY][dK](Nicotinoyl)L[Lys(iPr)]P[dA]-NH2)", "values": [
      {"measurement": "Kb", "result": 0.00158, "unit": "nM"}
    ]},
    {"smiles": "CC(C)C[C@H](NC(=O)[C@@H](CCCNC(N)=O)NC(=O)[C@H](Cc1ccc(O)cc1)N(C)C(=O)[C@H](CO)NC(=O)[C@@H](Cc1cccnc1)NC(=O)[C@@H](Cc1ccc(Cl)cc1)NC(=O)[C@@H](Cc1ccc2ccccc2c1)NC(=O)N1CCOCC1)C(=O)N[C@@H](CCCNC(=N)N)C(=O)N1CCC[C@H]1C(=O)N[C@H](C)C(N)=O", "note": "[Example 8b, N-(Morpholinocarbonyl)-D2Nal-D4ClPhe-D 3Pal- Ser-NMeTyr-DCit-Leu-Arg-Pro-DAlaNH2] ({Morpholide-CO}-[d2Nal][dPhe(4-Cl)][d3Pal]S[NMeY][dCit]LRP[dA]-NH2)", "values": [
      {"measurement": "Kb", "result": 0.02, "unit": "nM"}
    ]},
    {"smiles": "CC(C)C[C@H](NC(=O)[C@@H](CCCNC(N)=O)NC(=O)[C@H](Cc1ccc(O)cc1)N(C)C(=O)[C@H](CO)NC(=O)[C@@H](Cc1cccnc1)NC(=O)[C@@H](Cc1ccc(Cl)cc1)NC(=O)[C@@H](Cc1ccc2ccccc2c1)NC(=O)C1CC1)C(=O)N[C@@H](CCCNC(=N)N)C(=O)N1CCC[C@H]1C(=O)N[C@H](C)C(N)=O", "note": "[Example 5e, N-Cyclopropylcarbonyl-D2Nal-D4ClPhe-D3PaI-Ser-NMeTyr-DCit-Leu-Arg-ProDAlaNH2] (Cyclopropanecarbonyl-[d2Nal][dPhe(4-Cl)][d3Pal]S[NMeY][dCit]LRP[dA]-NH2)", "values": [
      {"measurement": "Kb", "result": 0.0112, "unit": "nM"}
    ]},
    {"smiles": "CCC(=O)N[C@H](Cc1ccc2ccccc2c1)C(=O)N[C@H](Cc1ccc(Cl)cc1)C(=O)N[C@H](Cc1cccnc1)C(=O)N[C@@H](CO)C(=O)N(C)[C@@H](Cc1ccc(O)cc1)C(=O)N[C@H](CCCNC(N)=O)C(=O)N[C@@H](CC(C)C)C(=O)N[C@@H](CCCNC(=N)N)C(=O)N1CCC[C@H]1C(=O)N[C@H](C)C(N)=O", "note": "[Example 5b, N-Propionyl-D2Nal-D4ClPhe-D3Pal-Ser-NMeTyr-DCit-Leu-Arg-Pro-DAlaNH2] (Propionyl-[d2Nal][dPhe(4-Cl)][d3Pal]S[NMeY][dCit]LRP[dA]-NH2)", "values": [
      {"measurement": "Kb", "result": 0.00347, "unit": "nM"}
    ]},
    {"smiles": "CC(C)C[C@H](NC(=O)[C@@H](CCCNC(N)=O)NC(=O)[C@H](Cc1ccc(O)cc1)N(C)C(=O)[C@H](CO)NC(=O)[C@@H](Cc1cccnc1)NC(=O)[C@@H](Cc1ccc(Cl)cc1)NC(=O)[C@@H](Cc1ccc2ccccc2c1)NC(=O)NCCc1ccccn1)C(=O)N[C@@H](CCCNC(=N)N)C(=O)N1CCC[C@H]1C(=O)N[C@H](C)C(N)=O", "note": "[Example 8g, N-(2-Pyridylethylaminocarbonyl)-D2Nal-D4ClPhe-D3Pal-Ser-NMeTyr-DCit-Leu-Arg-Pro-DAlaNH2] ({NH(2-(2-pyridyl)ethyl)-CO}-[d2Nal][dPhe(4-Cl)][d3Pal]S[NMeY][dCit]LRP[dA]-NH2)", "values": [
      {"measurement": "Kb", "result": 0.0178, "unit": "nM"}
    ]},
    {"smiles": "CC(C)C[C@H](NC(=O)[C@@H](CCCCNC(=O)c1cccnc1)NC(=O)[C@H](Cc1ccc(O)cc1)N(C)C(=O)[C@H](CO)NC(=O)[C@@H](Cc1cccnc1)NC(=O)[C@@H](Cc1ccc(Cl)cc1)NC(=O)[C@@H](Cc1ccc2ccccc2c1)NC(=O)CCc1ccccc1)C(=O)N[C@@H](CCCCNC(C)C)C(=O)N1CCC[C@H]1C(=O)N[C@H](C)C(N)=O", "note": "[Example 2l, N-3-Phenylpropionyl-D2Nal-D4ClPhe-D3Pal-Ser-NMeTyr-DLys(N-epsilon-Nicotinyl)-Leu-Lys(N-epsilon-Isopropyl)-Pro-DAlaNH 2] (Hydrocinnamoyl-[d2Nal][dPhe(4-Cl)][d3Pal]S[NMeY][dK](Nicotinoyl)L[Lys(iPr)]P[dA]-NH2)", "values": [
      {"measurement": "Kb", "result": 0.0126, "unit": "nM"}
    ]},
    {"smiles": "CC(C)C[C@H](NC(=O)[C@@H](CCCCNC(=O)c1cccnc1)NC(=O)[C@H](Cc1ccc(O)cc1)N(C)C(=O)[C@H](CO)NC(=O)[C@@H](Cc1cccnc1)NC(=O)[C@@H](Cc1ccc(Cl)cc1)NC(=O)[C@@H](Cc1ccc2ccccc2c1)NC(=O)CC#N)C(=O)N[C@@H](CCCCNC(C)C)C(=O)N1CCC[C@H]1C(=O)N[C@H](C)C(N)=O", "note": "[Example 2e, N-Cyanoacetyl-D2Nal-D4ClPhe-D3Pal-Ser-NMeTyr-DLys(N-epsilon-Nicotinyl)-Leu- Lys(N-epsilon-Isopropyl)-Pro-DAlaNH2] (X4-[d2Nal][dPhe(4-Cl)][d3Pal]S[NMeY][dK](Nicotinoyl)L[Lys(iPr)]P[dA]-NH2)", "values": [
      {"measurement": "Kb", "result": 0.00316, "unit": "nM"}
    ]},
    {"smiles": "CC(C)C[C@H](NC(=O)[C@@H](CCCNC(N)=O)NC(=O)[C@H](Cc1ccc(O)cc1)N(C)C(=O)[C@H](CO)NC(=O)[C@@H](Cc1cccnc1)NC(=O)[C@@H](Cc1ccc(Cl)cc1)NC(=O)[C@@H](Cc1ccc2ccccc2c1)NC(=O)NCc1ccccn1)C(=O)N[C@@H](CCCNC(=N)N)C(=O)N1CCC[C@H]1C(=O)N[C@H](C)C(N)=O", "note": "[Example 8e, N-(2-Pyridyhnethylaminocarbonyl)-D2Nal-D4ClPhe-D3Pal- Ser-NMeTyr-DCit-Leu-Arg-Pro-DAlaNH2] ({NHCH2(2-pyridyl)-CO}-[d2Nal][dPhe(4-Cl)][d3Pal]S[NMeY][dCit]LRP[dA]-NH2)", "values": [
      {"measurement": "Kb", "result": 0.00676, "unit": "nM"}
    ]},
    {"smiles": "CCNC(=O)N[C@H](Cc1ccc2ccccc2c1)C(=O)N[C@H](Cc1ccc(Cl)cc1)C(=O)N[C@H](Cc1cccnc1)C(=O)N[C@@H](CO)C(=O)N(C)[C@@H](Cc1ccc(O)cc1)C(=O)N[C@H](CCCNC(N)=O)C(=O)N[C@@H](CC(C)C)C(=O)N[C@@H](CCCNC(=N)N)C(=O)N1CCC[C@H]1C(=O)N[C@H](C)C(N)=O", "note": "[Example 8a, N-(Ethylaminocarbonyl)-D2Nal- D4ClPhe-D3Pal-Ser-NMeTyr-DCit-Leu-Arg-ProDAlaNH2] ({NHEt-CO}-[d2Nal][dPhe(4-Cl)][d3Pal]S[NMeY][dCit]LRP[dA]-NH2)", "values": [
      {"measurement": "Kb", "result": 0.0933, "unit": "nM"}
    ]},
    {"smiles": "CC(C)C[C@H](NC(=O)[C@@H](CCCNC(N)=O)NC(=O)[C@H](Cc1ccc(O)cc1)N(C)C(=O)[C@H](CO)NC(=O)[C@@H](Cc1cccnc1)NC(=O)[C@@H](Cc1ccc(Cl)cc1)NC(=O)[C@@H](Cc1ccc2ccccc2c1)NC(=O)NCc1cccnc1)C(=O)N[C@@H](CCCNC(=N)N)C(=O)N1CCC[C@H]1C(=O)N[C@H](C)C(N)=O", "note": "[Example 8f, N-(3-Pyridyhnethylaminocarbonyl)-D2Nal-D4ClPhe-D3Pal-Ser-NMeTyr-DCit-Leu-Arg-Pro-DAlaNH2] ({NH(3-picolyl)-CO}-[d2Nal][dPhe(4-Cl)][d3Pal]S[NMeY][dCit]LRP[dA]-NH2)", "values": [
      {"measurement": "Kb", "result": 0.0363, "unit": "nM"}
    ]}
  ]
}
